These are literature values, as cited in patent US20110303570A1, “PACKAGE OF SOLID PHARMACEUTICAL PREPARATION” (Astellas Pharma Inc., priority 2009, published 2011).

The conditions of the data set: administered either orally or directly into the colon of a mammal.

For `CC(OC(=O)NCC1(CC(=O)O)CCCCC1)OC(=O)C(C)C` (stereo not drawn) [1-{[(α-isobutanoyloxyethoxy)carbonyl]aminomethyl}-1-cyclohexane acetic acid], the Bioavailability as gabapentin entry is given as “high”.
